From patent US12371454B2, “Cyclic peptide compound having Kras inhibitory action” (priority 2019, dated 2025) come the findings set out here.

This test has as its target T1, Kras and SOS1 (biotin-tagged human Kras loaded with GDP, His-tagged human SOS1) (Homo sapiens, UniProt P01116, G12D).
T1 construct: made in house; host or cells: E. coli (stated for Kras only)
The test can be described thus: Protein-protein interaction inhibition between Kras and SOS1 (KrasGl2D-SOS PPI) using AlphaScreen. The note with it: AlphaScreen; biotin-tagged human Kras loaded with GDP, His-tagged human SOS1; read-out: KRAS G12D-SOS PPI IC50. Format: binding. In short, it runs like this: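 Energy transfer from nickel-chelate donor beads bound to His-SOS1 to streptavidin acceptor beads bound to biotin-Kras, expressed in E. coli and loaded with GDP after purification, was monitored. Donors were excited at 680 nm; singlet oxygen reaching acceptors gave emission read at 520-620 nm.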
(In general: Alpha assays give light when donor and acceptor beads are brought close together.)

Positions of bridges follow the written chain, without caps; N, C: chain ends. Non-standard residues stand in square brackets, D forms with d. Residues, ends and D or L forms follow the SMILES beside them. *: point of attachment. hPhe(3-Cl-4-CF3) = N[C@@H](CCc1ccc(C(F)(F)F)c(Cl)c1)C(=O)O; NMePhe(4-Cl) = CN[C@@H](Cc1ccc(Cl)cc1)C(=O)O; Phe(3-Cl) = N[C@@H](Cc1cccc(Cl)c1)C(=O)O; Phe(3-I) = N[C@@H](Cc1cccc(I)c1)C(=O)O; Phe(3-Me) = Cc1cccc(C[C@H](N)C(=O)O)c1; NMeY = CN[C@@H](Cc1ccc(O)cc1)C(=O)O; NMeCha = CN[C@@H](CC1CCCCC1)C(=O)O; NMehLeu = CN[C@@H](CCC(C)C)C(=O)O; NMeChg = CN[C@H](C(=O)O)C1CCCCC1; NMeF = CN[C@@H](Cc1ccccc1)C(=O)O; NMeD = CN[C@@H](CC(=O)O)C(=O)O; NMeL = CN[C@@H](CC(C)C)C(=O)O; NMeV = CN[C@H](C(=O)O)C(C)C; d(β3hA) = C[C@@H](N)CC(=O)O; NMeS = CN[C@@H](CO)C(=O)O; NMeA = CN[C@@H](C)C(=O)O; Piperidide = C1CCN(*)CC1; Pyrrolidide = C1CCN(*)C1; Ac5c = NC1(C(=O)O)CCCC1; Aze = O=C(O)[C@@H]1CCN1; CH2CMe2OH = CC(C)(O)C*; Cyclobutyl = C1CC(*)C1; βAla = NCCC(=O)O; Sar = CNCC(=O)O

T1 sequence (P01116 1-188 isoform P01116-2 G12D): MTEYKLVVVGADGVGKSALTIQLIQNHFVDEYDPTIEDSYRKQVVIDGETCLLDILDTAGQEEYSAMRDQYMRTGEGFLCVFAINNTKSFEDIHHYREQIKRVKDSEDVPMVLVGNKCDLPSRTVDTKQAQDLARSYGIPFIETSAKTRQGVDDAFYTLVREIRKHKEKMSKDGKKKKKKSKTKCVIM

The term IC50 denotes the point on the concentration scale where inhibition reaches its midpoint. As for `CC[C@H](C)[C@@H]1NC(=O)[C@H](CC(C)C)N(C)C(=O)C[C@@H](C(=O)N2CCCCC2)N(C)C(=O)[C@H](COC2CCC2)N(C)C(=O)C2(CCCC2)NC(=O)[C@@H]2CCCN2C(=O)[C@H](CCc2ccc(C(F)(F)F)c(Cl)c2)NC(=O)CN(C)C(=O)[C@H](CC2CCCCC2)N(C)C(=O)CN(C)C(=O)CN(C)C1=O` [Compound 585] ([NMeL]I[Sar][Sar][NMeCha][Sar][hPhe(3-Cl-4-CF3)]P[Ac5c][NMeS](Cyclobutyl)[NMeD]-Piperidide; lactam N-11), the IC50 worked out at 94 nM.

Consider `CC[C@H](C)[C@@H]1NC(=O)[C@H](CC(C)C)N(C)C(=O)C[C@@H](C)NC(=O)[C@H](CCC(C)C)N(C)C(=O)C2(CCCC2)NC(=O)[C@@H]2CCCN2C(=O)[C@H](CCc2ccc(C(F)(F)F)c(Cl)c2)NC(=O)CN(C)C(=O)[C@H](CC2CCCCC2)N(C)C(=O)CN(C)C(=O)CN(C)C1=O` [Compound 586] (cyclo([Ac5c][NMehLeu][d(β3hA)][NMeL]I[Sar][Sar][NMeCha][Sar][hPhe(3-Cl-4-CF3)]P)), for which the concentration for half-maximal inhibition (IC50) came to 160 nM.

`CC[C@H](C)[C@@H]1NC(=O)[C@H](CC(C)C)N(C)C(=O)C[C@@H](C(=O)N2CCCCC2)N(C)C(=O)[C@H](C2CCCCC2)N(C)C(=O)[C@H](C)NC(=O)[C@@H]2CCCN2C(=O)[C@H](CCc2ccc(C(F)(F)F)c(Cl)c2)NC(=O)CN(C)C(=O)[C@H](CC2CCCCC2)N(C)C(=O)CN(C)C(=O)CN(C)C1=O` [Compound 591] ([NMeL]I[Sar][Sar][NMeCha][Sar][hPhe(3-Cl-4-CF3)]PA[NMeChg][NMeD]-Piperidide; lactam N-11): the IC50 was found to be 2.1 nM. For `CC[C@H](C)[C@@H]1NC(=O)[C@H](CC(C)C)N(C)C(=O)C[C@@H](C)NC(=O)[C@H](C2CCCCC2)N(C)C(=O)C2(CCCC2)NC(=O)[C@@H]2CCCN2C(=O)[C@H](CCc2ccc(C(F)(F)F)c(Cl)c2)NC(=O)CN(C)C(=O)[C@H](CC2CCCCC2)N(C)C(=O)CN(C)C(=O)CN(C)C1=O` [Compound 593] (cyclo([Ac5c][NMeChg][d(β3hA)][NMeL]I[Sar][Sar][NMeCha][Sar][hPhe(3-Cl-4-CF3)]P)), the 50% inhibitory concentration (IC50) amounted to 34 nM.

As to `CC[C@H](C)[C@@H]1NC(=O)[C@H](C)N(C)C(=O)C[C@@H](C(=O)N2CCCC2)N(C)C(=O)[C@H](CC(C)C)NC(=O)[C@H](Cc2ccccc2)N(C)C(=O)[C@H](C)NC(=O)[C@H](Cc2cccc(I)c2)NC(=O)CN(C)C(=O)[C@H](Cc2ccc(OC)cc2)N(C)C(=O)[C@@H]2CCN2C(=O)[C@H](C)N(C)C1=O` [Compound 604] ([NMeA]I[NMeA][Aze][NMeY](Me)[Sar][Phe(3-I)]A[NMeF]L[NMeD]-Pyrrolidide; lactam N-11), the IC50 came out at 16 nM.

Consider `CC[C@H](C)[C@@H]1NC(=O)CCNC(=O)[C@H](COCC(C)(C)O)N(C)C(=O)[C@H](C2CCCCC2)N(C)C(=O)C2(CCCC2)NC(=O)[C@@H]2CCCN2C(=O)[C@H](CCc2ccc(C(F)(F)F)c(Cl)c2)NC(=O)CN(C)C(=O)[C@H](CC2CCCCC2)N(C)C(=O)CN(C)C(=O)CN(C)C1=O` [Compound 605] (cyclo([Ac5c][NMeChg][NMeS](CH2CMe2OH)[βAla]I[Sar][Sar][NMeCha][Sar][hPhe(3-Cl-4-CF3)]P)), for which the half-inhibitory concentration (IC50) came to 9 nM.

Turning to `CC[C@H](C)[C@@H]1NC(=O)[C@H](C)N(C)C(=O)C[C@@H](C(=O)N2CCCC2)NC(=O)[C@H](C(C)C)N(C)C(=O)[C@H](Cc2ccccc2)N(C)C(=O)[C@H](Cc2cccc(C)c2)NC(=O)[C@H](Cc2cccc(Cl)c2)NC(=O)CN(C)C(=O)[C@H](Cc2ccc(Cl)cc2)N(C)C(=O)CN(C)C(=O)CN(C)C1=O` [Compound 609] ([NMeA]I[Sar][Sar][NMePhe(4-Cl)][Sar][Phe(3-Cl)][Phe(3-Me)][NMeF][NMeV]D-Pyrrolidide; lactam N-11), the IC50 came to 110 nM.
